Measurements: paper PMC10340682, “Preparation and Identification of Peptides with α-Glucosidase Inhibitory Activity from Shiitake Mushroom (Lentinus edodes) Protein” (Foods, 2023)
Read-outs that look alike come from different tables or passages of the source. Residues, ends and D or L forms follow the SMILES beside them.

Experiments:
[1] = target: T1, α-glucosidase (Saccharomyces cerevisiae, UniProt P53341); set-up: method as in 7 sources, ref [4]; doi:10.1016/j.foodchem.2011.05.067; 4. Yu Z. Yin Y. Zhao W. Yu Y. Liu B. Liu J. Chen F. Novel peptides derived from egg white protein inhibiting alpha-glucosidase Food Chem. 2011 129 1376 1382 10.1016/j.foodchem.2011.05.067 ||| ref [25] = [25]; PMID 22953959; doi:10.1016/j.foodchem.2012.06.088; 25. Yu Z. Yin Y. Zhao W. Liu J. Chen F. Anti-diabetic activity peptides from albumin against alpha-glucosidase and alpha-amylase Food Chem. 2012 135 2078 2085 10.1016/j.foodchem.2012.06.088 22953959 ||| ref [10] = [10]; doi:10.1016/j.lwt.2021.113062; 10. Zhao Q. Wei G. Li K. Duan S. Ye R. Huang A. Identification and molecular docking of novel α-glucosidase inhibitory peptides from hydrolysates of Binglangjiang buffalo casein LWT 2022 156 113062 10 ||| ref [27] = [27]; PMID 36240562; doi:10.1016/j.foodchem.2022.134481; 27. Wang X. Deng Y. Xie P. Liu L. Zhang C. Cheng J. Zhang Y. Liu Y. Huang L. Jiang J. Novel bioactive peptides from ginkgo biloba seed protein and evaluation of their alpha-glucosidase inhibition acti ||| ref [43] = [43]; PMID 34920404; doi:10.1016/j.foodchem.2021.131717; 43. Chandrasekaran S. Gonzalez de Mejia E. Optimization, identification, and comparison of peptides from germinated chickpea ( Cicer arietinum ) protein hydrolysates using either papain or ficin and t ||| ...; conditions: cited from earlier work; for IC50 values: from germinated chickpea protein, ref [43]
T1 sequence (P53341 whole entry): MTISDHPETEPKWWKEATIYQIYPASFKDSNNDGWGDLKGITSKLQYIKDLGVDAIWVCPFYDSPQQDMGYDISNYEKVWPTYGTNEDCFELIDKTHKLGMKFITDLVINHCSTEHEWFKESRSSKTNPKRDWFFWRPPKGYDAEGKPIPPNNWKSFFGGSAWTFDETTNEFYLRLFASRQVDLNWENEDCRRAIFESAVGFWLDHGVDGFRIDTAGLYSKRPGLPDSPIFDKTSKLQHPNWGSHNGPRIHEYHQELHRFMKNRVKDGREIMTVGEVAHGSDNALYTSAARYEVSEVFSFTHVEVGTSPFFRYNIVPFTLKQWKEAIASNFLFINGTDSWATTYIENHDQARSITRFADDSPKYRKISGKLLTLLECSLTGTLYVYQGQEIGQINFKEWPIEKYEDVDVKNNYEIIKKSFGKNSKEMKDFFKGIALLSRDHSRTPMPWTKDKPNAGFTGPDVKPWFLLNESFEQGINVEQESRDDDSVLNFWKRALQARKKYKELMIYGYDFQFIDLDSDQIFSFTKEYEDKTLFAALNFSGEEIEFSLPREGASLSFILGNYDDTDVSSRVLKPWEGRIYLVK

[2] = target: T1, α-glucosidase; assay: α-glucosidase inhibition activity (PNPG); format: biochemical; conditions: synthetic peptides; enzyme 0.2 U/mL, preincubation 25 °C 10 min, PNPG 5 mmol/L, 30 min 37 °C, 405 nm; mean ± SD, three repetitions
Text: Shiitake mushrooms were acquired from a farmers’ market. Neutral protease (50 U/mg), pepsin (1:30,000), alkaline protease (200 U/mg), acid protease (50 U/mg), papain (800 U/mg), and flavor protease (20 U/mg) were purchased from Qiyi Biotechnology (Shanghai, China) Co., Ltd. α-glucosidase (10 U/mg) and 4-nitrophenyl a-D-glucopyranoside (PNPG, 99% purity) were purchased from Sigma-Aldrich (St. Louis, MO, USA). Acetonitrile (HPLC grade, 99.9% purity) was purchased from Fisher Chemical (Hampton, NH, USA). Formic acid (LC-MS grade, 99% purity) was purchased from Thermo Scientific (Waltham, MA, USA). Other reagents were of analytical grade and commercially available.
A quantity of 100 μL α-glucosidase solution (0.2 U/mL) was premixed with 50 μL sample solution in the enzyme label plate, and incubated at 25 °C for 10 min; 50 μL of PNPG (5 mmol/L) solution was added to start reactions, and incubation was continued for another 30 min at 37 °C. The reaction was terminated with 50 μL 0.67 mol/L Na2CO3 solution. The absorbance value was measured at 405 nm using an AMR-100 automatic enzyme label analyzer. The results were calculated using the following formula:Inhibitory rate (%) = ((Acontrol − Asample)/Acontrol) × 100(1)
All experiments had three repetitions. Data are expressed as mean ± standard deviation. Statistical significance (Duncan’s test, p < 0.05) was analyzed by DPS. Response surface data were analyzed using Design-ExpertV8.0.6 software.

[3] = from Binglangjiang buffalo casein, ref [10], read-out: IC50 values, inhibitory activity of α-glucosidase
[4] = from ginkgo biloba seed protein, ref [27], read-out: IC50 values, α-glucosidase inhibitory activity

## TKVIPYVRYL [from Binglangjiang buffalo casein]
[1]; [3]
  IC50: 498 µM

## GLAR [from germinated chickpea protein]
[1]
  IC50 values: 8700 µg/mL

## FALPQYLK [from Binglangjiang buffalo casein]
[1]; [3]
  IC50: 543 µM

## CC(C)C[C@H](NC(=O)[C@H](CC(=O)O)NC(=O)[C@H](CC(=O)O)NC(=O)[C@@H](N)CCCCN)C(=O)N[C@@H](CCCNC(=N)N)C(=O)N[C@@H](CO)C(=O)N1CCC[C@H]1C(=O)O [KDDLRSP] (H-KDDLRSP-OH)
[2]
  IC50: 550 ± 37 µM

## CC(C)C[C@H](NC(=O)[C@H](CCCCN)NC(=O)[C@@H]1CCCN1C(=O)[C@H](CCC(=O)O)NC(=O)CNC(=O)[C@@H](N)CCC(=O)O)C(=O)N1CCC[C@H]1C(=O)O [EGEPKLP] (H-EGEPKLP-OH)
[2]
  IC50: 499 ± 39 µM

## CC(C)C[C@H](NC(=O)[C@H](CCCCN)NC(=O)CNC(=O)[C@H](Cc1ccc(O)cc1)NC(=O)[C@H](CC(=O)O)NC(=O)[C@@H](N)CC(C)C)C(=O)O [LDYGKL] (H-LDYGKL-OH)
[2]
  IC50: 696 ± 39 µM

## LSMSFPPF [identified from ginkgo biloba seed protein]
[1]; [4]
  IC50: 454 ± 32.5 µM

## SPGAGKG [from germinated chickpea protein]
[1]
  IC50 values: 1800 µg/mL

## KLPGF
[1]; from albumin, ref [25], read-out: IC50 of α-glucosidase inhibitory peptide
  IC50: 59.5 ± 5.7 µM

## MPGPPSD [identified from ginkgo biloba seed protein]
[1]; [4]
  IC50: 944 ± 73.1 µM

## VPKIPPP [identified from ginkgo biloba seed protein]
[1]; [4]
  IC50: 1450 ± 67 µM

## RVPSLM [identified from egg white protein]
[1]; identified from egg white protein, ref [4], read-out: IC50 value, α-glucosidase inhibitory activity
  IC50: 23.1 µM

## YLGYLEQLLR [from Binglangjiang buffalo casein]
[1]; [3]
  IC50: 470 µM

## CC(C)C[C@H](NC(=O)[C@H](CCCCN)NC(=O)[C@H](CC(C)C)NC(=O)[C@H](CCC(=O)O)NC(=O)[C@@H]1CCCN1C(=O)[C@@H](N)[C@@H](C)O)C(=O)O [TPELKL] (H-TPELKL-OH)
[2]
  IC50: 452 ± 36 µM

## RNAVPITPTLNR [from Binglangjiang buffalo casein]
[1]; [3]
  IC50: 504 µM
